Results published in patent US20060292158A1, “Method for the treatment of cancer using a novel pharmaceutical composition containing at least one dolastatin 10 derivative” (priority 2004, published 2006).
Structures can show the parent of a compound that is named as a salt. Where two headings read alike, the source gives them in different places.

Columns and labels:
[1] = system: NCI-H460 human large cell lung carcinoma xenograft; assay: Antitumor activity in NCI-H460 subcutaneous xenograft in athymic nude mice, combination with cisplatin (Example 4); type: in vivo; conditions: day 12
Experimental: The NCI-H460 human large cell lung carcinoma cell line was purchased from American Type Culture Collection (MD, U.S.A.). The cells were cultured in RPMI-1640 medium (cat. # R8758, lot 12K2310, exp 01/03; lot 82K2497, exp 08/03; Sigma-Aldrich corporation, MO, U.S.A.) supplemented with 10% (v/v) fetal bovine serum (cat. # 047115, lot # 31300124; Roche Diagnostics KK, Tokyo, Japan).
Sixty of 5-week-old male athymic nude mice (BALB/c nu/nu) were purchased from Charles River Japan, Inc. (Yokohama, Japan). All mice were kept for 8 days in the animal facility of Kamakura Research Laboratories of Chugai Pharmaceutical Co., Ltd. before subjection to the experiment.
(§1) The title compound was synthesized at Kamakura Research Laboratories of Chugai Pharmaceutical Co., Ltd. CDDP (Randa™, lot # 924150) was obtained from Nippon Kayaku Co., Ltd. (Tokyo, Japan). The title compound was dissolved in dimethyl sulfoxide (DMSO) and diluted into 2.5 % DMSO solution with saline (for Injection; Ohtsuka Pharmaceutical Industry Co., Ltd., Tokushima, Japan) at the date of administration. CDDP was diluted with saline at the date of administration.
The in vivo evaluation procedure for anticancer drugs was based on the methods described by Plowman, et al. (1997) for xenograft models. See, “Anticancer Drug Development Guide: Preclinical Screening, Clinical Trials, and Approval, Teicher B (ed) pp. 101-125, specifically Chap. 6, “Human Tumor Xenograft Models in NCI Drug Development”, hereby incorporated by reference. A single cell suspension of NCI-H460 (5.6×10^6 cells per mouse) was inoculated subcutaneously into the right flank of each mouse. The tumor volume was estimated by using the equation ab^2/2, where a and b represent tumor length and width, respectively. Mice bearing tumors of between 150 and 245 mm^3 were selected on day 7 after tumor inoculation and were randomly divided into 8 groups, consisting of 5 mice each. Mean tumor volume and body weight of the selected mice were 187 mm3 and 24.3 g, respectively. Drug administration was initiated after mice were divided into groups. The title compound (2 mg/kg or 3 mg/kg), CDDP (5 mg/kg or 6.7 mg/kg) and each vehicle were administered intravenously. Tumor volume and body weight of each mouse were measured twice a week. […] Tumor growth inhibition was calculated using the equation (1-ΔT/ΔC)×100, where ΔT represents the difference in tumor volume from the initial treatment date of the treated group and ΔC represents the difference in tumor volume from the initial treatment date of the vehicle group.

[2] = Maximum tolerated dose (neither lethality nor more than 20% body weight loss) in mice; conditions: BALB/c nu/nu (athymic nude), mouse, in vivo, dose with neither lethality nor more than 20% body weight loss; for MTD at 14 days: oral
Source text: The in vivo evaluation procedure for anticancer drugs was based on the methods described by Plowman, et al. (1997) for xenograft models. See, “Anticancer Drug Development Guide: Preclinical Screening, Clinical Trials, and Approval, Teicher B (ed) pp. 101-125, specifically Chap. 6, “Human Tumor Xenograft Models in NCI Drug Development”, hereby incorporated by reference.
See, “Anticancer Drug Development Guide: Preclinical Screening, Clinical Trials, and Approval, Teicher B (ed) pp. 101-125, specifically Chap. 6, “Human Tumor Xenograft Models in NCI Drug Development”, hereby incorporated by reference.
The in vivo evaluation procedure for anticancer drugs was based on the methods described by Plowman, et al. (1997) for xenograft models. See, “Anticancer Drug Development Guide: Preclinical Screening, Clinical Trials, and Approval, Teicher B (ed) pp. 101-125, specifically Chap.

[3] = system: HT-29 human colorectal adenocarcinoma xenograft; type: in vivo; conditions: day 31
Experimental: The HT-29 human colorectal adenocarcinoma cell line was purchased from American Type Culture Collection (Rockville, MD, U.S.A.). The cells were cultured in McCoy's 5a medium (Sigma-Aldrich Corporation, MO, U.S.A.) supplemented with 10% (v/v) fetal bovine serum (Roche Diagnostics KK, Tokyo, Japan).
Sixty of 5-week-old male athymic nude mice (BALB/c nu/nu) were purchased from Charles River Japan, Inc. (Yokohama, Japan). All mice were kept for 9 days in the animal facility of Kamakura Research Laboratories of Chugai Pharmaceutical Co., Ltd. before subjection to the experiment.
Capecitabine was dissolved by the 40 milli mol/L citrate buffered-5% Gum arabic solution (pH 6.0; Chugai Pharmaceutical Co., Ltd.).
The in vivo evaluation procedure for anticancer drugs was based on the methods described by Plowman, et al. (1997) for xenograft models. See, “Anticancer Drug Development Guide: Preclinical Screening, Clinical Trials, and Approval, Teicher B (ed) pp. 101-125, specifically Chap. 6, “Human Tumor Xenograft Models in NCI Drug Development”, hereby incorporated by reference. A single cell suspension of HT-29 (1.1×10^7 cells per mouse) was inoculated subcutaneously into the right flank of each mouse. The tumor volume was estimated by using the equation ab^2/2, where a and b represent tumor length and width, respectively. Mice bearing tumors of between 172 and 282 mm^3 were selected on day 10 after tumor inoculation and were randomly divided into 7 groups, consisting of 6 mice each. Mean tumor volume and body weight of the selected mice were 217 mm^3 and 25.0 g respectively. Drug administration was initiated after mice were divided into groups. […] Capecitabine (359 mg/kg or 539 mg/kg) and its vehicle were administered orally. Tumor volume and body weight of each mouse were measured twice a week. […] Tumor growth inhibition was calculated using the equation (1-ΔT/ΔC)×100, where ΔT represents the difference in tumor volume from the initial treatment date of the treated group and ΔC represents the difference in tumor volume from the initial treatment date of the vehicle group.

[4] = system: Calu-6 human lung cancer xenograft; type: in vivo; conditions: 80 mg/kg (2/3 MTD) i.v. weekly x2; day 32
Experimental: The Calu-6 human lung carcinoma cell line was purchased from American Type Culture Collection (MD, U.S.A.). The cells were cultured in Eagle's MEM (Sigma-Aldrich corporation, MO, U.S.A.) supplemented with 0.1 milli mol/L Non-essential amino acids (Invitrogen corporation, CA, U.S.A.), 1 milli mol/L sodium pyruvate (Invitrogen corporation, CA, U.S.A.), and 10% (v/v) fetal bovine serum (Roche Diagnostics KK, Tokyo, Japan).
60 of 5-week-old male athymic nude mice (BALB/c nu/nu) were purchased from Charles River Japan, Inc. (Yokohama, Japan). All mice were kept for 8 days in the animal facility of Kamakura Research Laboratories of Chugai Pharmaceutical Co., Ltd. before subjection to the experiment.
as §1, with “Irinotecan (Topotecin™, lot. No. EQAZF13)” for “CDDP (Randa™, lot # 924150)”, “Daiichi Pharmaceutical” for “Nippon Kayaku”, “(For” for “(for”, “Irinotecan” for “CDDP”
The in vivo evaluation procedure for anticancer drugs was based on the methods described by Plowman, et al. (1997) for xenograft models. See, “Anticancer Drug Development Guide: Preclinical Screening, Clinical Trials, and Approval, Teicher B (ed) pp. 101-125, specifically Chap. 6, “Human Tumor Xenograft Models in NCI Drug Development”, hereby incorporated by reference. A single cell suspension of Calu-6 (5.7×10^6 cells per mouse) was inoculated subcutaneously into the right flank of each mouse. The tumor volume was estimated by using the equation ab^2/2, where a and b represent tumor length and width, respectively. Mice bearing tumors of between 181 and 326 mm^3 were selected on day 11 after tumor inoculation and were randomly divided into 10 groups, consisting of 5 mice each. […] Drug administration was initiated after mice were randomized and divided into groups. The tide compound (0.375 mg/kg; 0.75 mg/kg; 1.5 mg/kg or 3 mg/kg), irinotecan (80 mg/kg) and each vehicles were administered intravenously. Tumor volume and body weight of each mouse were measured twice a week. […] Tumor growth inhibition was calculated by using the equation (1-ΔT/ΔC)×100, where ΔT represents the tumor volume difference from the initial treatment date of treated group and ΔC represents the tumor volume difference from the initial treatment date of vehicle group.

N.N.[Cl][Pt][Cl] [CDDP, cis-diamminedichloroplatinum, reference compound]
reduction of tumor growth ([1]; 5 mg/kg (1/2 MTD) i.v. on first day): 56%
reduction of tumor growth ([1]; 6.7 mg/kg (2/3 MTD) i.v. on first day): 66%

CCCCCOC(=O)Nc1nc(=O)n([C@@H]2O[C@H](C)[C@@H](O)[C@H]2O)cc1F [capecitabine, reference compound]
MTD at 14 days ([2]; 359 mg/kg): 359 mg/kg
MTD at 14 days [2]: 539 mg/kg
reduction of tumor growth ([3]; 359 mg/kg (2/3 MTD) p.o. daily for 14 days): 32%
reduction of tumor growth ([3]; 539 mg/kg (MTD) p.o. daily for 14 days): 50%

CCc1c2c(nc3ccc(OC(=O)N4CCC(N5CCCCC5)CC4)cc13)-c1cc3c(c(=O)n1C2)COC(=O)[C@]3(O)CC [irinotecan, irinotecan hydrochloride, reference compound]
MTD [2]: 120 mg/kg
tumor growth inhibition [4]: 68%
